Biological target: T1, human microsomes containing CYP3A4 (Homo sapiens, UniProt P08684)
T1 construct: human microsomes containing CYP3A4; from tissue
Experiment: Protection of lopinavir from metabolism by human microsomes containing CYP3A4
Assay type: biochemical
Conditions: unmetabolized lopinavir after incubation with human microsomes containing CYP3A4; for % LPV Remaining (0.4 μM): compound at 0.4 μM; for % LPV Remaining (4 μM): compound at 4 μM
Description: The pharmacokinetics boosting effects of the compounds of the present invention were evaluated by measuring the compounds' protective effects on the metabolism of lopinavir, an HIV protease inhibitor. Lopinavir were mixed with human microsomes containing CYP3A4 in the presence of a compound of the invention. […] Significant pharmacokinetics boosting effects were also observed for some compounds at 0.4 μM (“% LPV Remaining (0.4 μM)”).

T1 sequence (P08684 whole entry): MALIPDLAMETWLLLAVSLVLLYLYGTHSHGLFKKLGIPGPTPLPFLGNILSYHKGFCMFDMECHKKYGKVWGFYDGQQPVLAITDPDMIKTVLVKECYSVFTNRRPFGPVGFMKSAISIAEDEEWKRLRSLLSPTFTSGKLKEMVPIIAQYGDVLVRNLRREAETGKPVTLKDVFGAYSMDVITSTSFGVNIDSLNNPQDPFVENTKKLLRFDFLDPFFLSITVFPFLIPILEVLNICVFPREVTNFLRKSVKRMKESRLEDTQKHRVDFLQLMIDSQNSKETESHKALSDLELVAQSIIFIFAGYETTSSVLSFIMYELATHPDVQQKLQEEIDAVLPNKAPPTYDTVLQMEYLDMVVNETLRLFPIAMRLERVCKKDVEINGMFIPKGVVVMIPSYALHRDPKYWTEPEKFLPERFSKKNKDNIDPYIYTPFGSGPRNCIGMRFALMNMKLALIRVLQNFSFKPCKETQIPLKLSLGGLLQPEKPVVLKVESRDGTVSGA

Row | % LPV Remaining (0.4 μM) | % LPV Remaining (4 μM) | SMILES
1 | 1.9% | 78% | O=C(N[C@@H](Cc1ccccc1)C(=O)N(Cc1ccccc1)Cc1ccccc1)OCc1cncs1 [N,N-dibenzyl-N-[(1,3-thiazol-5-ylmethoxy)carbonyl]-L-phenylalaninamide]
2 | 2% | 77% | CC(C)CN(CC(C)C)C(=O)[C@H](Cc1ccccc1)NC(=O)OCc1cncs1 [N,N-diisobutyl-N-[(1,3-thiazol-5-ylmethoxy)carbonyl]-L-phenylalaninamide]
3 | 1.8% | 83% | O=C(NC(Cc1ccccc1)C(=O)N(CCc1ccccc1)Cc1ccccc1)OCc1cncs1 [N-benzyl-N-(2-phenylethyl)-N-[(1,3-thiazol-5-ylmethoxy)carbonyl]-L-phenylalaninamide]

From US20080161246A1, “Cytochrome P450 Oxidase Inhibitors and Uses Thereof” (ABBOTT LABORATORIES, priority 2006, published 2008)
